In patent US6352988B2, “Indane or dihydroindole derivatives” (H. Lundbeck A/S, priority 1996, dated 2002):

How the values were obtained:
[1] = target: T1, dopamine D4 receptors in cloned human dopamine receptor subtype 4.2 membranes (Homo sapiens, UniProt P21917, DEL271-302); test: 3H-YM-09151-2 binding (affinity for dopamine D4 receptors); conditions: 3H-YM-09151-2, cloned human D4.2 membranes; * means that the test result is preliminary; read-out: D4-bind. IC50
T1 sequence (P21917 with tags, fused parts or gaps DEL271-302): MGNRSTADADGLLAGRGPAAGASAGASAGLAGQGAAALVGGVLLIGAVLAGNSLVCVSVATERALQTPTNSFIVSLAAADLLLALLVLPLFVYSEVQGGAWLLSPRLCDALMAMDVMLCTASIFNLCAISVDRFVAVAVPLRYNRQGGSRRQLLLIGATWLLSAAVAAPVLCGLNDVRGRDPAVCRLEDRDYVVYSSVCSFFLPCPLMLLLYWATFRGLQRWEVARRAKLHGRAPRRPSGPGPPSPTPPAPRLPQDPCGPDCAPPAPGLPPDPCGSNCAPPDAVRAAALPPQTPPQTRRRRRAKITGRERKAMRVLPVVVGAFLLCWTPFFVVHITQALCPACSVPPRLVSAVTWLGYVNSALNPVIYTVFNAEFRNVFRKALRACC
Description: By this method the inhibition by drugs of the binding of the dopamine D4 antagonist ^3H-YM-09151-2 to dopamine D4 receptors in cloned human dopamine receptor subtype 4.2 membranes is determined in vitro. Accordingly, this is a test for affinity for dopamine D4 receptors. The test is performed using a preparation of cloned dopamine D4 cell membranes CRM-016®, Dupharma A/S, Denmark, in accordance with the product specifications.

Row | IC50 [1] [nM] | melting point [°C] | Structure (SMILES)
1 | 14 | 139 to 140 | Clc1ccc2c(C3CCN(CCCCC4Cc5ccccc5C4)CC3)c[nH]c2c1 [Compound 21h, 6-Chloro-3-[1-[4-(indan-2-yl)butan-1-yl]piperidin-4-yl]-1H-indole]
2 | 2.2 | 80 to 81 | c1ccc2c(c1)CC(CCN1CCC(n3ccc4ccccc43)CC1)C2 [Compound 29b, 1-[1-[2-(Indan-2-yl)ethyl]piperidin-4-yl]-1H-indole]

Row | Structure (SMILES) | IC50 [1] [nM] | melting point [°C]
3 | C1=C(c2cc3ccccc3[nH]2)CCN(CCC2Cc3ccccc3C2)C1 [Compound 28c, 2-[1-[2-(Indan-2-yl)ethyl]-1,2,3,6-tetrahydropyridin-4-yl]-1H-indole] | 13 | 175 to 176
